# Results: US12060385B2, “Compounds for RNA capping and uses thereof” (GUANGZHOU HENOVCOM BIOSCIENCE CO., LTD., priority 2022, dated 2024)
# Assays:
# Format in all cases: biochemical
# T7 RNA Polymerase = T7 RNA Polymerase (Escherichia phage T7, UniProt P00573); settings: 20 μL transcription system, Cap1 Analog 4 mM, 37° C. 2 to 3 hours
# Description: • 1) A plasmid was linearized and the DNA template was purified. • 2) mRNA was synthesized in vitro with 51 types of capping structures of the present disclosure, or without any cap analogues. CleanCap®AG (3′OMe) (Trilink, N-7413) was applied as positive control group, uncapped mRNA was negative control group, and DNAase/RNase-Free water was a blank control group.
# The system was incubated for 2 to 3 hours at 37° C. and digested by TURBO DNase for 15 min LiCl was used to precipitate mRNA for at least 30 min, or overnight, mRNA precipitates were then washed with 75% ethanol. After ethanol was quickly volatilized, mRNA was re-solubilized with RNase-Free water. • 3) The transcribed products were purified and the transcription yields were calculated.
# mRNA = assay: Capping efficiency of mRNA with different cap analogs by LC-MS; settings: LC-MS after RNase H cleavage
# Description: In a PCR machine, the annealing was performed using the following gradients: • 95° C. for 5 min; 65° C. for 2 min; 55° C. for 2 min; 40° C. for 2 min; 22° C. for 2 min • 5) Pre-treatment of magnetic beads were bound with probes.
# 100 μL of magnetic beads were placed on a magnetic rack and the preservation solution was removed. 100 μL of 1*BW solution was added, mixed well, and placed on the magnetic rack, and the supernatant was then removed. The washing step was repeated three times. 100 μL of wash A buffer was added, mixed well, and placed on the magnetic rack, and the supernatant was then removed. The washing step was repeated three times. 100 μL of wash B buffer was added, mixed well, and placed on the magnetic rack, and the supernatant was then removed. The washing step was repeated three times. After 120 μL of sample was added, the sample and the magnetic beads solution were incubated for 30 min at room temperature, and they were gently mixed well while incubation. • 6) mRNA was spliced to obtain 5′ end mRNA single stranded sequence and binding with the probe.
# 20 μL of RNase H (5 U/mL) was added, incubated for 3 hours at 37° C., mixed once every half an hour. 100 μL of 1*BW solution was added, mixed well, and placed on the magnetic rack, and then the supernatant was removed. The washing step was repeated three times. Subsequently, 100 μL of deionized aqueous solution was added, mixed well, and placed on the magnetic rack, and the supernatant was then removed. The washing step was repeated three times. 100 μL of 75% methanol at 80° C. was added, and the mixture was incubated at 80° C. on a heater plate for 3 min, and placed on the magnetic rack, and the supernatant was then pipetted. The sample was dried using an evaporative centrifuge at room temperature for 45 min to 10 μL, and then resuspended in 50 μL of 100 μM EDTA solution in 1% MeOH for LC-MS analysis.
# The capping efficiencies of mRNA with different cap analogs were determined by LC-MS, and some compounds of the results were shown in Table 4.
# mRNA Decapping Enzyme = assay: Stability of the capped mRNA against the mRNA decapping enzymes
# Description: • 1) The capped mRNAs were heated at 65° C. for 10 min and their secondary structures were unfolded. • 2) The concentration of mRNA Deacpping Enzyme was diluted from the original concentration (100 U/uL) to 50 U/uL, 5 U/uL, 0.5 U/uL in a 10-fold gradient dilution ratio. • 3) The capped mRNAs were added to the reaction, and the amount of enzyme in the reaction was 50 U, 5 U, 0.5 U, 0 U, respectively. The mixture was mixed with a pipette, and was incubated at 37° C. for 1 hour.
# • 4) The RNA was purified using a LiCl Precipitation method, and then diluted to 500 ng/uL*20 uL for subsequent cell transfection. • 5) The cells were transfected with mRNA, and luciferase expression was detected in the same method as Experiment 2.
# In FIG. 1, the luminescence unit of luciferase expressed by mRNA without decapping enzyme treatment (0 U) was 100%, and the percentage of the luminescence unit of luciferase expressed by capped mRNA treated with different concentrations of […] to the luminescence unit of luciferase expressed by capped mRNA without decapping enzyme treatment was calculated.
# Chain of T7 RNA Polymerase (P00573 whole entry): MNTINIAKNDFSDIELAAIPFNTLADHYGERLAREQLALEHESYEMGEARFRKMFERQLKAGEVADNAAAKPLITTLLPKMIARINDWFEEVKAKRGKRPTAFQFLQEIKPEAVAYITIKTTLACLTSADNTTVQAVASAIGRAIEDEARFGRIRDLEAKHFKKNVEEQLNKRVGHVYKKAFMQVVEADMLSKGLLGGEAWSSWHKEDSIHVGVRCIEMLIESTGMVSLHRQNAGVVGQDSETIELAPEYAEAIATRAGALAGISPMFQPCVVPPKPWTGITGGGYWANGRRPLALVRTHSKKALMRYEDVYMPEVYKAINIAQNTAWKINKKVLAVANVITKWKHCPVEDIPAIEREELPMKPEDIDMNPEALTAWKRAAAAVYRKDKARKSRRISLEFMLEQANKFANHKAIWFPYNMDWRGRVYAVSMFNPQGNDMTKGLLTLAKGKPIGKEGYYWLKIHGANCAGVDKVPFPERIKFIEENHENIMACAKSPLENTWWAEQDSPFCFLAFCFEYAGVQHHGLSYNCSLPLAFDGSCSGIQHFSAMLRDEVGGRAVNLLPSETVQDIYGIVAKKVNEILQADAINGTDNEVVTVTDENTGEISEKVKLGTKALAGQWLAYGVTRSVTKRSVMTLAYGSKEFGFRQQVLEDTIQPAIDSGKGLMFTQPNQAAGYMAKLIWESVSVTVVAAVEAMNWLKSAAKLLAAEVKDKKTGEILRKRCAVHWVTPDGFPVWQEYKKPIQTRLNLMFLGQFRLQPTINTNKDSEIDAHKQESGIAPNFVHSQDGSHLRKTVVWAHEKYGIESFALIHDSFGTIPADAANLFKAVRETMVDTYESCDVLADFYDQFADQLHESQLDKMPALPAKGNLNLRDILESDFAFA
smiles,measurement,setting,value
COC[C@H]1[C@@H](O)[C@H](n2c[n+](C)c3c(=O)[nH]c(N)nc32)O[C@@H]1COP(=O)(O)OP(=O)(O)CP(=O)(O)OC[C@H]1O[C@@H](n2cnc3c(N)ncnc32)[C@H](OC)[C@@H]1OP(=O)(O)OC[C@H]1O[C@@H](n2cnc3c(=O)[nH]c(N)nc32)[C@H](O)[C@@H]1O [Compound 173],Final product mass obtained from the 20 μL of mRNA transcription system,T7 RNA Polymerase,118 µg
same,Capping efficiency,mRNA,A (100% > A ≥ 95%)
same,Stability of capped mRNA against decapping enzyme (FIG. 1),mRNA Decapping Enzyme; at low concentration of decapping enzyme,the same stability as that of N-7413
same,Stability of capped mRNA against decapping enzyme (FIG. 1),mRNA Decapping Enzyme; when the concentration of decapping enzyme was higher,a better stability than that of N-7413
